Laboratory results from patent US12446495B2, “Injection systems, injection tools and methods for same” (Invaio Sciences International GmbH, priority 2018, dated 2025).

Assay: Distribution of test substance within plants after trunk injection
Type: in vivo
Details: solution comprising 2% Brilliant Blue E 133 injected; trees felled and cut in pieces; over 24 hours
Excerpt: The trunk injection devices have been tested regarding the use with different types of trunks, the speed of absorption, distribution of product within the plant, and the continuing usage of an injection device within a trunk. The injection devices have been tested with trunks with a diameter between 2 cm and 30 cm. The tests have been conducted with box, vine, hazelnut, walnut, maple, beach and oak. Further, trees such as date palm, citrus tree, and banana tree would be suitable as well.′ Speed of absorption is influenced by factors such as weather, season, time of day and injection pressure. Within tests conducted under ideal conditions, an injection pressure of 2.5 bars, and 10 ml of test substance, absorption times below 2 minutes have been achieved.
Distribution within plants has been tested injecting a solution comprising 2% Brilliant Blue E 133 (CAS reg. No. 3844-45-9.) as a test substance. Trees have afterwards been felled and cut in pieces to analyze the distribution of the test substance over time within the plant. The test substance did typically distribute over 5 meters within the stem over 24 hours.

CCN(Cc1cccc(S(=O)(=O)[O-])c1)c1ccc(C(=C2C=CC(=[N+](CC)Cc3cccc(S(=O)(=O)[O-])c3)C=C2)c2ccccc2S(=O)(=O)[O-])cc1.[Na+].[Na+] [Brilliant Blue E 133]
distribution of the test substance within the stem: ~5 meters
